# Assay results from patent US20220370553A1, “PREBIOTIC-INDUCED ANTI-TUMOR IMMUNITY” (Sanford Burnham Prebys Medical Discovery Institute, priority 2019, published 2022).
# Experiments:
# [1] = system: Bacteroides spp.; assay: Anaerobic fecal cultures with 1% prebiotic, 16S rDNA quantification; type: cell-based; conditions: fecal cultures of 12 healthy human subjects, 3-4 days at 37° C.
# Experimental: (§1) Fecal samples derived from 12 healthy human subjects were cultivated in the presence or absence of 1% prebiotic. 16S rDNA sequences corresponding to Bifidobacterium, Bacteroides and Akkermansia muciniphila were quantified. Data are representative of three independent experiments. Graphs show the mean±s.e.m. *P<0.05, **P<0.005, ***P<0.001, ****P<0.0001 by one-way ANOVA with Tukey's correction.
# (§2) Anaerobic fecal cultures. […] Anaerobic cultures (9% H2, 81% N2) were grown statically for 3-4 days at 37° C. and grown to approximate saturation.
# (§3) Chemically-defined medium (CDM). CDM contains 50 mM HEPES, 2.2 mM KH2PO4, 10 mM Na2HPO4, 60 mM NaHCO3, 4 mM of each amino acid, except leucine (15 mM), 10 mL ATCC, Trace Mineral Supplement. CDM contained nucleoside bases (100 mg/L), inosine, xanthine, adenine, guanine, cytosine, thymidine and uracil (400 mg/L). CDM contained choline (100 mg/L), ascorbic acid (500 mg/L), lipoic acid (2 mg/L), hemin (1.2 mg/L) and myo-inositol (400 mg/L). Resazurin (1 mg/L) was added to visually monitor dissolved oxygen. The pH of the media was adjusted to 7.4.
# (§4) Fecal samples derived from 12 healthy, vegetarian human subjects were cultivated in a chemically-defined medium the presence or absence of 1% prebiotic. Anaerobic cultures (9% H2, 81% N2) were grown statically for 3-4 days at 37° C. and grown to approximate saturation.
# [2] = system: A. muciniphila; assay: as above; type: cell-based, human; conditions: in most of the cultures
# Experimental: as §1, §2, §3, §4
# [3] = system: Bifidobacterium spp.; assay: as above; type: cell-based, human; conditions: in two of these cultures
# Experimental: as §1, §2, §3, §4
# [4] = system: fecal microbiota; assay: 16S rRNA amplicon sequencing of fecal microbiota, YUMM1.5 melanoma model; type: in vivo, C57BL/6 mice; conditions: YUMM1.5 model, TABLE 3
# Experimental: (§5) Bacterial DNA extraction and 16S library preparation. […] Mouse fecal pellets were frozen on dry ice, and stored at −80° C. Bacterial DNA was extracted using the QIAmp Fast DNA Stool Mini Kit (Qiagen). To ensure efficient cell lysis, a 5-min bead-beating step using a Mini-Beadbeater-16 was included (Biospec Products, OK, USA). Library preparation for the Illumina MiSeq platform was performed by amplification of the V3-V4 region of the bacterial 16S ribosomal DNA gene using
# (§6) C. Adapter and barcode sequences for dual indices were used as described by Illumina. PCR clean up steps were performed with QIAquick 96-PCR Clean up kit (Qiagen, Germany), and library quantification was performed using a KAPA Library Quantification Kit for Illumina platforms (KAPA Biosystems, MA, USA). An Experion Automated Gel Electrophoresis System (Bio-Rad, CA, USA) was used to measure the DNA concentration and purity of the pooled libraries. The 16S libraries were sequenced at Novagene (Beijing, China) and the SBP sequencing Core.
# 16S sequencing data processing. […] OSUs mapped to the same strains are grouped together (adding read counts) if percentage similarities are within 3%. Read counts are converted into relative abundance as described in HiMap. […]
# [5] = system: gut microbiota; type: in vivo, C57BL/6 mice; conditions: in the absence of MEKi
# Experimental: as §5, §6
# (§7) 16S sequencing data processing. The original FASTQ files from Illumina 250 basepair paired-end sequencing of the samples were processed using a novel 16S amplicon sequencing pipeline HiMap (http://github.com/taolonglab/himap; BioRxiv 565572). The output of HiMap is Operational Strain Unit (OSU) which contains one or more bacterial strains that best match the 16S sequence and cannot be further distinguished. The percentage similarity between the 16S sequence and the aligned region of 16S rRNA genes of the strains in the OSU is indicated. OSUs mapped to the same strains are grouped together (adding read counts) if percentage similarities are within 3%. Read counts are converted into relative abundance as described in HiMap. Log 10-transformed relative abundances were used for comparisons between samples under different experimental conditions.
# [6] = system: fecal microbiota; assay: 16S sequencing of fecal microbiota, MC-38 colon cancer model; type: in vivo, C57BL/6 mice
# Experimental: as §5, §6, §7
# The effects of inulin on the microbiota were evaluated in a colon cancer model. […] MC-38 mouse colorectal cancer cells (1×10^6) were inoculated, and diets were continued after inoculation.
# (§8) P-values were calculated using paired one-tail Wilcoxon rank sum test.
# as §8
# [7] = system: bone marrow-derived dendritic cells (BMDCs); assay: Activation of bone marrow-derived dendritic cells in vitro; type: cell-based, murine; conditions: 24 h, 0.05 and 0.5 mg/ml
# From the text: Data are representative of two independent experiments. Graphs show the mean±s.e.m. *P<0.05, **P<0.005, ***P<0.001, ****P<0.0001 one-way ANOVA with Tukey's correction.
# Bone Marrow-Derived Dendritic Cells (BMDCs).
# [8] = system: intestinal epithelial cells; assay: qRT-PCR of inflammatory mediators in intestinal epithelial cells in vivo; set-up: species or system C57BL/6 mice; conditions: mucin 3% in drinking water, naïve mice, 2 weeks
# From the text: FIG. 15 illustrates effects of mucin and inulin on expression of inflammatory mediators by intestinal epithelial cells in vivo. qRT-PCR data are shown for mRNA levels of the indicated inflammatory mediators in intestinal epithelial cells from mucin or inulin-treated mice (n=4). Data are representative of two independent experiments. Graphs show the mean s.e.m. *P<0.05, **P<0.005, one-way ANOVA with Tukey's correction.
# Isolation of intestinal epithelial cells. A 10 cm section of mouse small intestine was opened longitudinally, minced, washed in 150 mM NaCl containing 1 mM DTT, and then resuspended in dissociation buffer (130 mM NaCl, 10 mM EDTA, 10 mM Hepes [pH 7.4], 10% FCS, and 1 mM DTT). The sections were incubated at 37° C. for 30 min with vigorous shaking to release the epithelial cells from the lamina propria. The epithelial cell suspension was then carefully aspirated, centrifuged, and washed in ice-cold PBS.
# The effect of mucin and inulin on intestinal epithelial cells was evaluated in vivo. To this end, mucin (3% in drinking water) or inulin (15% in chow) were administered to naïve C57BL/6 mice for 2 weeks. Intestinal epithelial cells were isolated from small intestine and were assessed for the level of select cytokines and chemokines that are implicated in the activation of the immune response and anti-tumor immunity.
# [9] = B: 14 days after mucin feeding, A (prior to feeding) 0.001, p A vs B 0.001
# [10] = C: 20 days post-tumor cell inoculation with mucin feeding
# [11] = C: 20 days post-tumor cell inoculation with mucin feeding, p B vs C 0.006
# [12] = C: 20 days post-tumor cell inoculation with mucin feeding, p B vs C 0.007
# [13] = C: 20 days post-tumor cell inoculation with mucin feeding, p B vs C 0.011
substance,measurement,setting,value
mucin,relative abundance of Bacteroides spp.,[1],increased
same,relative abundance of A. muciniphila,[2],increased
same,Bifidobacterium spp.,[3],not
same,taxa enriched,[4],predominantly enriched taxa with similarity to members of Clostridium cluster XIVa
same,phylotype group related to Parasutterella excrementihominis,[5],not observed
same,taxa increased in relative abundance,[5],primarily increased the relative abundance of taxa mapped in or near Clostridium cluster XIVa
same,Abundance of phylotype group Clostridium cellulolyticum (93),[6]; [9],0.055
same,Abundance of phylotype group Dubosiella newyorkensis (93),[6]; [9],0.044
same,Abundance of phylotype group Staphylococcus saprophyticus (100),"[6]; B: 14 days after mucin feeding, A (prior to feeding) 0.001, p A vs B 0.005",0.057
same,Abundance of phylotype group Corynebacterium ammoniagenes (99),"[6]; B: 14 days after mucin feeding, A (prior to feeding) 0.001, p A vs B 0.006",0.054
same,Abundance of phylotype group Olsenella profusa (92),"[6]; B: 14 days after mucin feeding, A (prior to feeding) 0.001, p A vs B 0.023",0.118
same,Abundance of phylotype group Christensenella timonensis (88) / Anaerotruncus colihominis (88),"[6]; B: 14 days after mucin feeding, A (prior to feeding) 0.001, p A vs B 0.025",0.010
same,Abundance of phylotype group Gracilibacter thermotolerans (89) / Christensenella massiliensis (88),"[6]; B: 14 days after mucin feeding, A (prior to feeding) 0.001, p A vs B 0.036",0.006
same,Abundance of phylotype group Bifidobacterium pseudolongum (90),"[6]; B: 14 days after mucin feeding, A (prior to feeding) 0.001, p A vs B 0.049",0.025
same,Abundance of phylotype group Ruminococcus lactaris (97) / Clostridium oroticum (97),"[6]; B: 14 days after mucin feeding, A (prior to feeding) 0.004, p A vs B 0.0005",0.062
same,Abundance of phylotype group Clostridium hylemonae (98) / Muricomes intestini (98) / Clostridium oroticum (98) XIVa,"[6]; B: 14 days after mucin feeding, A (prior to feeding) 0.005, p A vs B 0.040",0.029
same,Abundance of phylotype group Desulfovibrio desulfuricans (95),"[6]; B: 14 days after mucin feeding, A (prior to feeding) 0.008, p A vs B 0.035",0.338
same,Abundance of phylotype group Clostridium cellulovorans (89) / Christensenella massiliensis (88),"[6]; B: 14 days after mucin feeding, A (prior to feeding) 0.009, p A vs B 0.048",0.045
same,Abundance of phylotype group Eubacterium dolichum (93),"[6]; B: 14 days after mucin feeding, A (prior to feeding) 0.011, p A vs B 0.025",0.106
same,Abundance of phylotype group Clostridium viride (96) / Intestinimonas butyriciproducens (96) / Pseudoflavonifractor capillosus (95),"[6]; B: 14 days after mucin feeding, A (prior to feeding) 0.013, p A vs B 0.001",0.062
same,Abundance of phylotype group Roseburia faecis (95),"[6]; B: 14 days after mucin feeding, A (prior to feeding) 0.013, p A vs B 0.009",0.124
same,Abundance of phylotype group Ihubacter massiliensis (98) / E. timonensis (96),"[6]; B: 14 days after mucin feeding, A (prior to feeding) 0.014, p A vs B 0.002",0.146
same,Abundance of phylotype group Clostridium xylanolyticum (98) / C. aerotolerans (97),"[6]; B: 14 days after mucin feeding, A (prior to feeding) 0.014, p A vs B 0.008",0.088
same,Abundance of phylotype group Harryflintia acetispora (95) / Anaerotruncus colihominis (93),"[6]; B: 14 days after mucin feeding, A (prior to feeding) 0.017, p A vs B 0.043",0.040
same,Abundance of phylotype group Staphylococcus lentus (100),"[6]; B: 14 days after mucin feeding, A (prior to feeding) 0.024, p A vs B 0.030",0.349
same,Abundance of phylotype group Roseburia intestinalis (95) / Ruminococcus faecis (95) / E. rectale (95),"[6]; B: 14 days after mucin feeding, A (prior to feeding) 0.029, p A vs B 0.003",0.113
same,Abundance of phylotype group Eubacterium dolichum (92),"[6]; B: 14 days after mucin feeding, A (prior to feeding) 0.045, p A vs B 0.00003",0.291
same,Abundance of phylotype group Murimonas intestini (97) / Clostridium celerecrescens (96) XIVa,"[6]; B: 14 days after mucin feeding, A (prior to feeding) 0.104, p A vs B 0.009",0.300
same,Abundance of phylotype group Anaerotaenia torta (96) / C. xylanolyticum (95),"[6]; B: 14 days after mucin feeding, A (prior to feeding) 0.168, p A vs B 1 × 10^−6",0.421
same,Abundance of phylotype group Olsenella profusa (95),"[6]; B: 14 days after mucin feeding, A (prior to feeding) 0.180, p A vs B 0.004",4.883
same,Abundance of phylotype group Clostridium cocleatum (99),"[6]; B: 14 days after mucin feeding, A (prior to feeding) 0.253, p A vs B 0.011",7.822
same,Abundance of phylotype group Muribaculum intesinale (92),"[6]; B: 14 days after mucin feeding, A (prior to feeding) 6.008, p A vs B 4 × 10^−7",17.058
same,Abundance of phylotype group Bifidobacterium pseudolongum (90),[6]; [10],0.006
same,Abundance of phylotype group Clostridium cellulolyticum (93),[6]; [10],0.055
same,Abundance of phylotype group Clostridium cellulovorans (89) / Christensenella massiliensis (88),[6]; [10],0.038
same,Abundance of phylotype group Clostridium cocleatum (99),[6]; [10],3.099
same,Abundance of phylotype group Clostridium hylemonae (98) / Muricomes intestini (98) / Clostridium oroticum (98) XIVa,[6]; [10],0.030
same,Abundance of phylotype group Desulfovibrio desulfuricans (95),[6]; [10],0.533
same,Abundance of phylotype group Eubacterium dolichum (92),[6]; [10],0.462
same,Abundance of phylotype group Eubacterium dolichum (93),[6]; [10],0.279
same,Abundance of phylotype group Gracilibacter thermotolerans (89) / Christensenella massiliensis (88),[6]; [10],0.020
same,Abundance of phylotype group Murimonas intestini (97) / Clostridium celerecrescens (96) XIVa,[6]; [10],0.462
same,Abundance of phylotype group Olsenella profusa (92),[6]; [10],0.068
same,Abundance of phylotype group Olsenella profusa (95),[6]; [10],3.256
same,Abundance of phylotype group Ruminococcus lactaris (97) / Clostridium oroticum (97),[6]; [10],0.060
same,Abundance of phylotype group Dubosiella newyorkensis (93),"[6]; C: 20 days post-tumor cell inoculation with mucin feeding, p B vs C 0.001",0.005
same,Abundance of phylotype group Corynebacterium ammoniagenes (99),[6]; [11],0.002
same,Abundance of phylotype group Harryflintia acetispora (95) / Anaerotruncus colihominis (93),[6]; [11],0.172
same,Abundance of phylotype group Clostridium viride (96) / Intestinimonas butyriciproducens (96) / Pseudoflavonifractor capillosus (95),[6]; [12],0.113
same,Abundance of phylotype group Muribaculum intesinale (92),[6]; [12],11.857
same,Abundance of phylotype group Roseburia intestinalis (95) / Ruminococcus faecis (95) / E. rectale (95),[6]; [12],0.407
same,Abundance of phylotype group Roseburia faecis (95),[6]; [13],0.555
same,Abundance of phylotype group Staphylococcus saprophyticus (100),[6]; [13],0.006
same,Abundance of phylotype group Christensenella timonensis (88) / Anaerotruncus colihominis (88),"[6]; C: 20 days post-tumor cell inoculation with mucin feeding, p B vs C 0.028",0.027
same,Abundance of phylotype group Staphylococcus lentus (100),"[6]; C: 20 days post-tumor cell inoculation with mucin feeding, p B vs C 0.034",0.033
same,"CD40, CD80, MHC I and MHC II on BMDCs",[7],increased
same,TNF-α mRNA level in intestinal epithelial cells,[8],elevated
